Test results published in patent US20250197864A1, “LNCRNA TRANSCRIPTS IN MELANOMAGENESIS” (The Regents of the University of California, priority 2021, published 2025).

System: gene expression in D04 melanoma cells
Test: RNA-Seq differential expression analysis (DESeq2)
Assay type: cell-based, human
Description: Total RNA was isolated using the RNeasy mini Kit (QIAGEN) following the manufacturer's protocol. Quality check for extracted RNA was done using 2100 Bioanalyzer (Agilent Technologies, USA) or Tapestation System (Agilent Technologies, USA). […] For samples used for identification of MAPK-responsive lncRNAs, paired-end, 101-bp sequencing was performed by Centrillion Genomic Services (Centrillion Biosciences, USA) on an Illumina HiSeq 2000. For DE gene analysis of ASO-transfected D04 samples, paired-end, 2×150-bp sequencing was performed by Genewiz (USA) on a Illumina HiSeq.
Sequence reads were aligned to the human genome (hg19) using TopHat (Version 2.0.11).
Differential expression (DE) analysis was done using DESeq2. Differentially expressed genes were defined by more than 1.5-fold changes (log 2 >0.58 or <−0.58) in expression with FDR<0.05. GO term analysis was done using DAVID Functional Annotation Clustering analysis.
To examine the biomolecular changes upon TRASH-inhibition in melanoma, D04 cells were treated with TRASH-ASOs (SEQ ID NO:15) and Control-ASOs and RNA was extracted and used for RNA-Seq. […] These GO terms consisted of genes encoding growth factors, tyrosine kinases, G protein coupled receptor subunits, and collagen subunits. Scatter plot diagram showing differential gene expression after TRASH-ASO treatment compared to Control-ASO treatment. (cut-off for significance was adjusted p-value <0.05). Data was obtained from RNA-Seq of D04 melanoma cells, treatment period was three days. (FIG. 5c)

In the case of “GACTGGAGATAATTAA (gapmer, pattern not given here) [SEQ ID NO: 15, GapmeR ASO targeting AC004540.4 (TRASH), exon region of both isoforms; used for in vitro experiments]”, the log2FoldChange (LINC00689 (ENSG00000231419)) is reported as 1.29, the log2FoldChange (LINC00707 (ENSG00000238266)) is reported as 1.936 and the log2FoldChange (LINC00879 (ENSG00000239589)) is reported as −0.6051. The log2FoldChange (LINC00957 (ENSG00000235314)) was 1.503, the log2FoldChange (LINC00973 (ENSG00000240476)) was 1.339 and the log2FoldChange (LINC01204 (ENSG00000229563)) was 1.543. It also gave a log2FoldChange (LINC01444 (ENSG00000264301)) of 1.479, a log2FoldChange (LINC01468 (ENSG00000231131)) of 1.433 and a log2FoldChange (LINC01505 (ENSG00000234323)) of −0.6329. For the same sequence, the log2FoldChange (LINC01583 (ENSG00000259518)) was 1.348, the log2FoldChange (LINC01638 (ENSG00000233521)) was 1.544 and the log2FoldChange (LINC01770 (ENSG00000225285)) was −0.5999. It also gave a log2FoldChange (LINC02009 (ENSG00000283646)) of 2.6101, a log2FoldChange (LINC02109 (ENSG00000259786)) of −0.684 and a log2FoldChange (LINC02302 (ENSG00000258998)) of 1.424. The log2FoldChange (LINC02506 (ENSG00000251129)) was −0.687, the log2FoldChange (LINC02551 (ENSG00000254842)) was 1.274 and the log2FoldChange (LOXL2 (ENSG00000134013)) was −0.5824. It also gave a log2FoldChange (LOXL3 (ENSG00000115318)) of −0.6239, a log2FoldChange (LPAR1 (ENSG00000198121)) of −0.683 and a log2FoldChange (LRRC2 (ENSG00000163827)) of 1.394. The log2FoldChange (LRRC17 (ENSG00000128606)) was −0.6716, the log2FoldChange (LRRK1 (ENSG00000154237)) was −0.6611 and the log2FoldChange (MACROD2 (ENSG00000172264)) was −0.705. For the same sequence, the log2FoldChange (MAML2 (ENSG00000184384)) was −0.6085, the log2FoldChange (MAP3K3 (ENSG00000198909)) was −0.63 and the log2FoldChange (MAP3K7CL (ENSG00000156265)) was 1.53. For the same sequence, the log2FoldChange (MAP7D2 (ENSG00000184368)) was 1.513, the log2FoldChange (MATN1 (ENSG00000162510)) was 1.294 and the log2FoldChange (MCF2L (ENSG00000126217)) was 3.367. For the same sequence, the log2FoldChange (MECR (ENSG00000116353)) was −0.6676, the log2FoldChange (MEGF9 (ENSG00000106780)) was −0.634 and the log2FoldChange (MEIS1 (ENSG00000143995)) was −0.6955. For the same sequence, the log2FoldChange (MLLT1 (ENSG00000130382)) was −0.682, the log2FoldChange (MMP3 (ENSG00000149968)) was 1.815 and the log2FoldChange (MPP4 (ENSG00000082126)) was 1.479. For the same sequence, the log2FoldChange (MRGPRX4 (ENSG00000179817)) was 1.367, the log2FoldChange (MSANTD2 (ENSG00000120458)) was −0.6954 and the log2FoldChange (MUC4 (ENSG00000145113)) was 2.706. It also gave a log2FoldChange (MVB12B (ENSG00000196814)) of −0.6767, a log2FoldChange (MYBPH (ENSG00000133055)) of −0.6322 and a log2FoldChange (MYCT1 (ENSG00000120279)) of 3.863. It also gave a log2FoldChange (MYH16 (ENSG00000002079)) of 1.514, a log2FoldChange (MYOCD (ENSG00000141052)) of −0.6639 and a log2FoldChange (NA (ENSG00000170647)) of −0.6428. It also gave a log2FoldChange (NAP1L3 (ENSG00000186310)) of 1.339, a log2FoldChange (NBEA (ENSG00000172915)) of −0.6249 and a log2FoldChange (NBEAP1 (ENSG00000258590)) of 1.338. It also gave a log2FoldChange (NCALD (ENSG00000104490)) of −0.6411, a log2FoldChange (NCAM1 (ENSG00000149294)) of −0.6126 and a log2FoldChange (NCKAP5L (ENSG00000167566)) of −0.6233. The log2FoldChange (NES (ENSG00000132688)) was −0.6119, the log2FoldChange (NLRC3 (ENSG00000167984)) was 1.713 and the log2FoldChange (NLRP1 (ENSG00000091592)) was −0.7071. For the same sequence, the log2FoldChange (NLRP3 (ENSG00000162711)) was 2.515, the log2FoldChange (NLRP5 (ENSG00000171487)) was 6.997 and the log2FoldChange (NLRP10 (ENSG00000182261)) was 1.584. For the same sequence, the log2FoldChange (NOSTRIN (ENSG00000163072)) was −0.6677, the log2FoldChange (NR2F1 (ENSG00000175745)) was −0.6433 and the log2FoldChange (NR2F1-AS1 (ENSG00000237187)) was −0.5814. It also gave a log2FoldChange (OLFML2A (ENSG00000185585)) of −0.6037, a log2FoldChange (ONECUT2 (ENSG00000119547)) of 1.306 and a log2FoldChange (OPRK1 (ENSG00000082556)) of 1.22. It also gave a log2FoldChange (OVAAL (ENSG00000236719)) of 1.572, a log2FoldChange (P2RX6 (ENSG00000099957)) of −0.6686 and a log2FoldChange (P2RX7 (ENSG00000089041)) of −0.5889. For the same sequence, the log2FoldChange (PADI1 (ENSG00000142623)) was 2.566, the log2FoldChange (PADI3 (ENSG00000142619)) was 1.708 and the log2FoldChange (PAPPA (ENSG00000182752)) was −0.6776. It also gave a log2FoldChange (PCDH12 (ENSG00000113555)) of 1.386, a log2FoldChange (PCDHB15 (ENSG00000113248)) of −0.6069 and a log2FoldChange (PDE2A (ENSG00000186642)) of 1.553. For the same sequence, the log2FoldChange (PDE8A (ENSG00000073417)) was −0.6263, the log2FoldChange (PEAR1 (ENSG00000187800)) was 1.726 and the log2FoldChange (PGM5P2 (ENSG00000277778)) was 1.447. The log2FoldChange (PIGR (ENSG00000162896)) was 1.274, the log2FoldChange (PIWIL2 (ENSG00000197181)) was 1.787 and the log2FoldChange (PKHD1L1 (ENSG00000205038)) was 1.46. It also gave a log2FoldChange (PKIA (ENSG00000171033)) of −0.6985, a log2FoldChange (PLA2G7 (ENSG00000146070)) of 1.312 and a log2FoldChange (PLAT (ENSG00000104368)) of −0.6194. For the same sequence, the log2FoldChange (PLCD4 (ENSG00000115556)) was −0.6812, the log2FoldChange (PLCL1 (ENSG00000115896)) was −0.6782 and the log2FoldChange (PLCXD2 (ENSG00000240891)) was 1.882. The log2FoldChange (PLEKHA2 (ENSG00000169499)) was −0.6601, the log2FoldChange (PLIN4 (ENSG00000167676)) was −0.6819 and the log2FoldChange (POU2F3 (ENSG00000137709)) was 1.244.
